# Laboratory results: patent US20170231177A1, “REGENERATION AND TRANSFORMATION OF COSMOS BIPINNATUS PLANTLETS” (Novin Giti Gene R&D Center (N.G.G), priority 2015, published 2017)
# What was measured:
# [1] = test system: cotyledon explants of Cosmos Bipinnatus; experiment: Shoot number of regenerated cotyledon explants on regeneration media; type: cell-based
# Procedure: (§1) In this example, direct regeneration of Cosmos Bipinnatus plantlets was carried out with the following steps according to one or more aspects of the present disclosure. First, Cosmos Bipinnatus seeds were sterilized. The sterilization of Cosmos Bipinnatus seeds was carried out by soaking the seeds in an ethanol solution with a concentration of about 70% volume/volume for about 1 min followed by soaking the seeds in a hypochlorite sodium solution with a concentration of about 2% weight/volume for about 10 min, and then the seeds were rinsed three times with sterile distilled water.
# (§2) The sterilized Cosmos Bipinnatus seeds were then germinated in order to obtain cotyledons of Cosmos Bipinnatus plant. Seed germination was carried out by putting the sterilized Cosmos Bipinnatus seeds under a sterile condition in an agar-solidified MS medium. Then, the sterilized Cosmos Bipinnatus seeds in the agar-solidified MS medium were incubated in a growth chamber with photoperiods of 16 hours in light and 8 hours in dark under fluorescent illuminations (60 μmol m^2 s^1) at 22° C.±1° C. for a period of 3 days. The cotyledons of Cosmos Bipinnatus plant that grew from germinated seeds after 3 days were cut and used as explants in the following steps of the direct regeneration process.
# (§3) The obtained explants were then cultured onto a regeneration medium for regenerating cotyledon explants of Cosmos Bipinnatus. To this end, 10 explants, with their adaxial side down, were cultured onto the regeneration medium in a Petri dish for regeneration in cotyledons to occur. The regeneration in cotyledons was assessed by examining shoot-inducing ability in the presence of different regeneration medium compositions. The different regeneration medium compositions included respectively different concentrations of plant growth regulators and ethylene inhibitors. The regeneration media contained benzyl adenine (BA), silver nitrate, and adenine sulfate with different concentrations. An MS medium supplemented with 3% sucrose was used as a basal medium and the pH was adjusted to about 5.8 using a 1 N solution of NaOH.
# As used herein, “shoot number” is the average number of shoots that are generated on the 10 explants used in the experiments for three replications.
# [2] = test system: cotyledon explants of Cosmos Bipinnatus; experiment: Regeneration frequency of cotyledon explants on regeneration media; type: cell-based
# Procedure: as §1, §2
# as §3, with “An MS medium supplemented with 3% sucrose was used as a basal medium and the pH was adjusted to about 5.8 using a 1 N solution of NaOH.” left out
# [3] = BA 2.5, AgNO3 0, adenine sulfate 0 mg/l in MS medium
# [4] = BA 5, AgNO3 0, adenine sulfate 0 mg/l in MS medium
# [5] = BA 7.5, AgNO3 0, adenine sulfate 0 mg/l in MS medium
smiles,measurement,setting,value
"O=[N+]([O-])[O-].[Ag+] [AgNO3, silver nitrate]",Shoot number,"[1]; BA 0, AgNO3 2.5, adenine sulfate 0 mg/l in MS medium",0.00 ± 0.00
same,Shoot number,"[1]; BA 0, AgNO3 5, adenine sulfate 0 mg/l in MS medium",0.00 ± 0.00
same,Shoot number,"[1]; BA 0, AgNO3 7.5, adenine sulfate 0 mg/l in MS medium",0.00 ± 0.00
"Nc1ncnc2nc[nH]c12.O=S(=O)(O)O [Adenine sulfate, adenine sulfate]",Shoot number,"[1]; BA 0, AgNO3 0, adenine sulfate 10 mg/l in MS medium",0.00 ± 0.00
same,Shoot number,"[1]; BA 0, AgNO3 0, adenine sulfate 20 mg/l in MS medium",0.00 ± 0.00
same,Shoot number,"[1]; BA 0, AgNO3 0, adenine sulfate 40 mg/l in MS medium",0.00 ± 0.00
same,Shoot number,"[1]; BA 0, AgNO3 0, adenine sulfate 80 mg/l in MS medium",0.00 ± 0.00
"c1ccc(CNc2ncnc3nc[nH]c23)cc1 [BA, benzyladenine]",Shoot number,[1]; [3],1.34 ± 0.33
same,Shoot number,[1]; [4],0.34 ± 0.28
same,Shoot number,[1]; [5],0.67 ± 0.33
same,Regeneration frequency,[2]; [3],6.25 ± 0.00%
same,Regeneration frequency,[2]; [4],6.25 ± 1.70%
same,Regeneration frequency,[2]; [5],5.25 ± 2.06%
